Data from ChEMBL document CHEMBL4808247 (Bioorg Med Chem, 2021).
≈ marks a conversion by molar mass, not a printed value.

Key:
Assay type in all cases: functional
Enterobacter cloacae [1] = assay: Antibacterial activity against Enterobacter cloacae IR32 producing class B beta-lactamase, NDM1 assessed as reduction in microbial growth incubated for 16 to 20 hrs by broth microdilution method; details: time 16-20 hrs
Escherichia coli [2] = assay: Antibacterial activity against Escherichia coli BL21(DE3) transfected with pET9a vector harboring class D beta lactamase, OXA-48 incubated for 16 to 20 hrs by broth microdilution method; details: time 16-20 hrs
Escherichia coli [3] = assay: Antibacterial activity against Escherichia coli BL21(DE3) transfected with pET9a empty vector incubated for 16 to 20 hrs by broth microdilution method; details: time 16-20 hrs
Escherichia coli [4] = assay: Antibacterial activity against Escherichia coli BL21(DE3) transfected with pET9a vector harboring class A beta lactamase, CTX-M-15 incubated for 16 to 20 hrs by broth microdilution method; details: time 16-20 hrs
Escherichia coli [5] = assay: Antibacterial activity against Escherichia coli BL21(DE3) transfected with pET9a vector harboring class B beta lactamase, NDM-1 incubated for 16 to 20 hrs by broth microdilution method; details: time 16-20 hrs
Escherichia coli [6] = assay: Antibacterial activity against Escherichia coli BL21(DE3) transfected with pET9a vector harboring class C beta lactamase, AmpC incubated for 16 to 20 hrs by broth microdilution method; details: time 16-20 hrs
[7] = Ratio of MIC for antibacterial activity against Escherichia coli BL21(DE3) transfected with pET9a vector harboring class B beta lactamase NDM-1 to MIC for antibacterial activity against Escherichia coli BL21(DE3)
[8] = Ratio of MIC for antibacterial activity against Escherichia coli BL21(DE3) transfected with pET9a vector harboring class C beta lactamase AmpC to MIC for antibacterial activity against Escherichia coli BL21(DE3)
Escherichia coli [9] = assay: Antibacterial activity against Escherichia coli NIHJ JC-2 assessed as reduction in microbial growth incubated for 16 to 20 hrs by broth microdilution method; details: time 16-20 hrs
Escherichia coli [10] = assay: Antibacterial activity against Escherichia coli SR34100 producing class A beta-lactamase, CTX-M-15 assessed as reduction in microbial growth incubated for 16 to 20 hrs by broth microdilution method; details: time 16-20 hrs
Enterobacter cloacae [11] = assay: Antibacterial activity against Enterobacter cloacae SR36276 producing class C beta-lactamase, AmpC assessed as reduction in microbial growth incubated for 16 to 20 hrs by broth microdilution method; details: time 16-20 hrs
Klebsiella pneumoniae [12] = assay: Antibacterial activity against Klebsiella pneumoniae PLE producing class D beta-lactamase, OXA-48 assessed as reduction in microbial growth incubated for 16 to 20 hrs by broth microdilution method; details: time 16-20 hrs
Klebsiella pneumoniae [13] = assay: Antibacterial activity against Klebsiella pneumoniae JMI:211 producing class A beta-lactamase, KPC-2 assessed as reduction in microbial growth incubated for 16 to 20 hrs by broth microdilution method; details: time 16-20 hrs
[14] = Ratio of MIC for antibacterial activity against Escherichia coli BL21(DE3) transfected with pET9a vector harboring class A beta lactamase, CTX-M-15 to MIC for antibacterial activity against Escherichia coli BL21(DE3)
[15] = Ratio of MIC for antibacterial activity against Escherichia coli BL21(DE3) transfected with pET9a vector harboring class D beta lactamase, OXA-48 to MIC for antibacterial activity against Escherichia coli BL21(DE3)
Escherichia coli [16] = assay: Antibacterial activity against Escherichia coli NIHJ JC-2 strain assessed as reduction in microbial growth incubated for 16 to 20 hrs in presence of vaborbactam by broth microdilution method; details: time 16-20 hrs
Escherichia coli [17] = assay: Antibacterial activity against Escherichia coli SR34100 producing class A beta lactamase, CTX-M-15 assessed as reduction in microbial growth incubated for 16 to 20 hrs in presence of vaborbactam by broth microdilution method; details: time 16-20 hrs
Enterobacter cloacae [18] = assay: Antibacterial activity against Enterobacter cloacae IR32 producing class B beta-lactamase, NDM-1 assessed as reduction in microbial growth incubated for 16 to 20 hrs in presence of vaborbactam by broth microdilution method; details: time 16-20 hrs
Enterobacter cloacae [19] = assay: Antibacterial activity against Enterobacter cloacae SR36276 producing class C beta-lactamase, AmpC assessed as reduction in microbial growth incubated for 16 to 20 hrs in presence of vaborbactam by broth microdilution method; details: time 16-20 hrs
Klebsiella pneumoniae [20] = assay: Antibacterial activity against Klebsiella pneumoniae PLE producing class D beta-lactamase, OXA-48 assessed as reduction in microbial growth incubated for 16 to 20 hrs in presence of vaborbactam by broth microdilution method; details: time 16-20 hrs
Klebsiella pneumoniae [21] = assay: Antibacterial activity against Klebsiella pneumoniae JMI:211 producing class A beta-lactamase, KPC-2 assessed as reduction in microbial growth incubated for 16 to 20 hrs in presence of vaborbactam by broth microdilution method; details: time 16-20 hrs

## CC(C)(O/N=C(\C(=O)N[C@@H]1C(=O)N2[C@@H]1SC[C@@H]1CC(=O)O[C@@]12C(=O)O)c1csc(N)n1)C(=O)O (stereo in doubt)
Enterobacter cloacae [1]
  MIC: 0.5 µg/mL
Escherichia coli [2]
  MIC: 0.5 µg/mL (≈ 0.974 µM)
Escherichia coli [3]
  MIC: 0.5 µg/mL (≈ 0.974 µM)
Escherichia coli [4]
  MIC: 0.5 µg/mL (≈ 0.974 µM)
Escherichia coli [5]
  MIC: 0.5 µg/mL (≈ 0.974 µM)
Escherichia coli [6]
  MIC: 1 µg/mL (≈ 1.95 µM)
[7]
  Ratio: <2
[8]
  Ratio: <2
Escherichia coli [9]
  MIC: 0.5 µg/mL
Escherichia coli [10]
  MIC: 1 µg/mL
Enterobacter cloacae [11]
  MIC: 16 µg/mL
Klebsiella pneumoniae [12]
  MIC: 2 µg/mL
Klebsiella pneumoniae [13]
  MIC: 1 µg/mL
[14]
  Ratio: <2
[15]
  Ratio: <2

## C[C@@H](O)[C@H]1C(=O)N2C(C(=O)O)=C(S[C@@H]3CN[C@H](C(=O)N(C)C)C3)[C@H](C)[C@H]12 [MEROPENEM]
Escherichia coli [16]
  MIC: < 0.031 µg/mL
Escherichia coli [17]
  MIC: < 0.031 µg/mL
Enterobacter cloacae [18]
  MIC: 16 µg/mL
Enterobacter cloacae [19]
  MIC: < 0.031 µg/mL
Klebsiella pneumoniae [20]
  MIC: 1 µg/mL
Klebsiella pneumoniae [21]
  MIC: < 0.031 µg/mL
